Laboratory results reported in article PMC3156125, “Reconstitution of the Costunolide Biosynthetic Pathway in Yeast and Nicotiana benthamiana” (PLoS ONE, 2011).

Assays:
Assay type in all cases: cell-based
CiCOS = target: T1, CiCOS (Cichorium intybus, UniProt G3GBK0); test: yeast co-expression, GC-MS and UPLC-MRM-MS; conditions: WAT11 yeast with TpGAS and CiGAO; substrate formed in situ; HEPES or MOPS pH 7.5, 30 °C; also N. benthamiana transient expression
T1 construct: gene CYP71BL3; full-length cDNA in pYEDP60, WAT11 yeast, co-expressed with TpGAS and CiGAO; also N. benthamiana
T1 sequence (G3GBK0 1-494): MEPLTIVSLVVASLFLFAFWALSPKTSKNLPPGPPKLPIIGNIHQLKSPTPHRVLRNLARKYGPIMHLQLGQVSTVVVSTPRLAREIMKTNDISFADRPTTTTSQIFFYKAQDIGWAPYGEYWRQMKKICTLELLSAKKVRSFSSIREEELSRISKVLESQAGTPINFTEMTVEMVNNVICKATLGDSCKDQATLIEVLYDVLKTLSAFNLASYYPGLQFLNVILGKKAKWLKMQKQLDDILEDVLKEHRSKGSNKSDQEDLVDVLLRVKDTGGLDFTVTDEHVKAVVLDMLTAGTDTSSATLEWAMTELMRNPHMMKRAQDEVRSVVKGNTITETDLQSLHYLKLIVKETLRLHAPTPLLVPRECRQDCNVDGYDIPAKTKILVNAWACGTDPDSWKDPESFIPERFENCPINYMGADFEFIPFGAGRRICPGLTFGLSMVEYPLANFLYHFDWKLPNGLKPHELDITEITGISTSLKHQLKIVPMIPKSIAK

CiGAO [1] = target: T2, CiGAO (Cichorium intybus, UniProt D5JBW8); test: yeast co-expression, GC-MS; conditions: WAT11 yeast with TpGAS; detected as elematrien-12-oic acid after heat rearrangement
T2 construct: cDNA from chicory library, no terminal tags, pESC-Trp in WAT11 yeast with TpGAS
T2 sequence (D5JBW8 1-488): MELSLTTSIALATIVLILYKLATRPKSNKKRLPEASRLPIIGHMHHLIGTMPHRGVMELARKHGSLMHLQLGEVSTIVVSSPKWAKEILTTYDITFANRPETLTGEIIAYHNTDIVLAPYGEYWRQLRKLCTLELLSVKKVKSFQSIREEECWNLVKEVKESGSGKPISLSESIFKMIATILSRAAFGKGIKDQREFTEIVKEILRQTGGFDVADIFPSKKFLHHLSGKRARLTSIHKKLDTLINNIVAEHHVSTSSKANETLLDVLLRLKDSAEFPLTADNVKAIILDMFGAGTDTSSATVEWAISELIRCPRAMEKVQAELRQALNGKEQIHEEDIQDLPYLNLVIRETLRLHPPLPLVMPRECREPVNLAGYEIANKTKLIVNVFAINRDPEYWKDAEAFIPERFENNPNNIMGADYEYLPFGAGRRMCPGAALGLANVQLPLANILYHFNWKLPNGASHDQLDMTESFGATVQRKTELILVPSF

TpGAS = target: T3, TpGAS (Tanacetum parthenium, UniProt F8UL80); test: yeast culture extract, GC-MS; conditions: endogenous farnesyl diphosphate; also N. benthamiana headspace
T3 construct: gene GAS
T3 sequence (F8UL80 1-559): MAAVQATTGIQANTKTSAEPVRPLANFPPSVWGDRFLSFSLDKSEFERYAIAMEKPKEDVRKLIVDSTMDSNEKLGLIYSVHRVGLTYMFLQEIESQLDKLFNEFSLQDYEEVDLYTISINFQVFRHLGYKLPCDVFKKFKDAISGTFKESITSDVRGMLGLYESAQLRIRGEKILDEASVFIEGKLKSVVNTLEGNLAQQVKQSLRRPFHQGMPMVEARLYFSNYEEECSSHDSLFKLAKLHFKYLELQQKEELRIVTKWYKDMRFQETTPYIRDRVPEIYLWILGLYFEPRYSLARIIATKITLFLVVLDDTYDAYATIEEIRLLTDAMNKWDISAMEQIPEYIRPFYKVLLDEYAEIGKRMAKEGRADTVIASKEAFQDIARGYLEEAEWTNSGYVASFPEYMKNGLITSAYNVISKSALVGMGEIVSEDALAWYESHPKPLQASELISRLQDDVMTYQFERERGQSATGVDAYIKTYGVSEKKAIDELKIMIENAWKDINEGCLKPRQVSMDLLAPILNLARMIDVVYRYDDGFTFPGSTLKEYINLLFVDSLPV

CiGAO [2] = target: T2, CiGAO; test: N. benthamiana co-infiltration, headspace GC-MS; conditions: with mTpGAS; substrate formed in situ
CiGAS-l (CiGAS-long) = target: T4, CiGAS-l (CiGAS-long) (Cichorium intybus, UniProt Q8LSC3); test: yeast culture extract, GC-MS; conditions: endogenous farnesyl diphosphate
T4 sequence (Q8LSC3 1-583): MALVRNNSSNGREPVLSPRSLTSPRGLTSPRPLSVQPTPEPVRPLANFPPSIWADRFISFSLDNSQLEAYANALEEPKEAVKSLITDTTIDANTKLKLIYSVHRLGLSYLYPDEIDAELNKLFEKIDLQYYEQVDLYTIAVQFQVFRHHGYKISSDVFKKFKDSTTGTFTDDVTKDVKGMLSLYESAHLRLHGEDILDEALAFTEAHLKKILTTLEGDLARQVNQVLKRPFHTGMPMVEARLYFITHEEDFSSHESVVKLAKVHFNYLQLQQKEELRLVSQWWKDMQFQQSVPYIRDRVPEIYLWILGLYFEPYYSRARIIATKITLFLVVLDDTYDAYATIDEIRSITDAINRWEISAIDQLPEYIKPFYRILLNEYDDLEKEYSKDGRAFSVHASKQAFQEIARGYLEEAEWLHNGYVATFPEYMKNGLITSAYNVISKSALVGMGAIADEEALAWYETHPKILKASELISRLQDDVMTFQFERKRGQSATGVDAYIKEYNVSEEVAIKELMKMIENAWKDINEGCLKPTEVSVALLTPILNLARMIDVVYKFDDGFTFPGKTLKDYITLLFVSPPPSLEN

Compound: C=C1C(=O)O[C@@H]2/C=C(\C)CC/C=C(\C)CC[C@@H]12 [costunolide]
- yeast co-expression, GC-MS and UPLC-MRM-MS (CiCOS): encodes an enzymatic activity which was able to produce costunolide

Compound: C=C(C(=O)O)[C@H]1C/C=C(\C)CC/C=C(\C)CC1 [germacra-1(10),4,11(13)-trien-12-oic acid]
- yeast co-expression, GC-MS (CiGAO [1]): enzymatic activity was confirmed in our yeast system by co-expression of TpGAS and CiGAO

Compound: C=C(C)[C@H]1C/C=C(\C)CC/C=C(\C)CC1 [germacrene A]
- yeast culture extract, GC-MS (TpGAS): yeast culture expressing TpGAS had an approximately three fold higher activity
- N. benthamiana co-infiltration, headspace GC-MS (CiGAO [2]): CiGAO can efficiently catalyse the conversion of the product of mTpGAS, germacrene A
- yeast culture extract, GC-MS (CiGAS-l (CiGAS-long)): Germacrene A production in yeast. A yeast culture transformed by either CiGAS-long
